The text below walks through data of patent publication US20220251611A1, “BENZALDEHYDE PRODUCTION METHOD” (AJINOMOTO CO., INC., priority 2019, published 2022).

In test [1] the test system is HmaS At-His purified enzyme (HMAS). The settings on record: for Generated amount of mandelate: 10 mM sodium phenylpyruvate, 25° C., 15 minutes, no hydrogen peroxide taken as 100%. Here is the method:
Cells were collected from 10 mL of the HmaS At culture broth obtained in Example 2 by centrifugation, suspended in 2 mL of xTractor Buffer (Takara Bio), and allowed to stand at room temperature for 20 minutes, to disrupt the cells. The cell residue was removed from the disruptant by centrifugation, and the obtained supernatant was used as a soluble fraction. The soluble fraction was applied to a His-tag protein purification column HisTALON Superflow Cartridges (Takara Bio, CV=1 mL) equilibrated with a buffer containing 20 mM Tris-HCl (pH 8.0), 300 mM NaCl, and 10 mM Imidazole, to adsorb proteins on the carrier. Proteins not adsorbed on the carrier (non-adsorbed proteins) were washed off with a buffer containing 20 mM Tris-HCl (pH 8.0), 300 mM NaCl, and 10 mM Imidazole, and then a buffer containing 20 mM Tris-HCl (pH 8.0), 300 mM NaCl, and 150 mM Imidazole was flowed at 1.5 mL/min, to elute the adsorbed proteins. The eluted fractions were collected and concentrated using Amicon Ultra-15 30 k (Millipore). The concentrate was diluted with 20 mM of Tris-HCl (pH 7.6), and hereinafter used as a HmaS At-His purified enzyme.
A reaction mixture (0.2 mL) containing 10 mM of sodium phenylpyruvate, 0.01 mM of iron sulfate, 10 mM of trisodium citrate, 10 mM of sodium ascorbate, 100 mM of Tris-HCl (pH 7.0), 0.02 mg/mL of the HmaS At-His purified enzyme, and 0 to 1 mM of hydrogen peroxide was put into a 1.5 mL-volume tube, and a reaction was carried out at 25° C. Similarly, a reaction without addition of HmaS At-His was carried out. After 15 minutes, a 0.05 mL aliquot of the reaction mixture was mixed with 0.2 mL of a reaction stop solution (1% phosphoric acid), and subjected to HPLC analysis. HPLC analysis was carried out in the same manner as Example 5, and mandelate enzymatically-generated was quantified. The amount of hydrogen peroxide added and the generated amount of mandelate are shown in Table 3, wherein the generated amount of mandelate in the case of not adding hydrogen peroxide was taken as 100%.

For test [2], the system named is benzaldehyde generation from L-Phe by AAD, HmaS At, Md1B and Md1C concentrates. In words: Synthesis of benzaldehyde from L-Phe with addition of culture broth of catalase-expressing strain. The settings on record: 50 mM L-Phe, 0.1 mL of 5-fold Cat concentrate in 1 mL reaction mixture, 25° C., 20 hours, then Md1C concentrate 4 hours; HPLC; Ctrl 9.1. The format is biochemical, E. coli. Here is the method:
A 10 mL aliquot of the AAD culture broth obtained in Example 1 was centrifuged, 8 mL of the supernatant was removed, and the cells were suspended in the remaining culture supernatant, to obtain a 5-fold concentrated culture broth. This was used for the following reactions as an AAD concentrate. Similarly, 5-fold concentrates were prepared from the HmaS At culture broths, Md1B culture broth, and Md1C culture broth obtained in Examples 2 to 4, and used for the following reactions as a HmaS At concentrates, Md1B concentrate, and Md1C concentrate. A 1 mL aliquot of the Cat 1 culture broth obtained in Example 6 was centrifuged, 0.8 mL of the supernatant was removed, and the cells were suspended in the remaining culture supernatant, to obtain a 5-fold concentrated culture broth. This was used for the following reactions as a Cat 1 concentrate. Similarly, 5-fold concentrates were prepared from the Cat 2 to 15 culture broths and the Ctrl culture broth, and used for the following reactions as Cat 2 to 15 concentrates and a Ctrl concentrate.
After 20 hours, the reaction mixture was centrifuged, a 0.49 mL aliquot of the supernatant was mixed with 0.01 mL of the Md1C concentrate, and the resultant mixture was put into a test tube and shaken at 25° C. […]

Where two headings read alike, the source gives them in different places.

For `OO` [Hydrogen peroxide, hydrogen peroxide], the “Generated amount of mandelate” value in test [1] (0.001 mM hydrogen peroxide added) was found to be 103%; in test [1] (0.01 mM hydrogen peroxide added) it was 94%; in test [1] (0.1 mM hydrogen peroxide added), 39%; in test [1] (1 mM hydrogen peroxide added), 1%. The “Effect on HMAS activity” value in test [1] (0.01 to 1 mM of hydrogen peroxide added) is listed as “inhibits HMAS activity”.
Take “Cat 2: Cat HPII derived from E. coli (SEQ ID NO: 6), concentrated culture broth of expressing strain”: the Benzaldehyde in test [2] is listed as 10.7 mM.
